Experimental data published in US20260132165A1, “MODIFIED NUCLEOSIDE ANALOGUE AND USE THEREOF, AND NUCLEOSIDE ANALOGUE-CONTAINING DOUBLE-STRANDED OLIGONUCLEOTIDE AND USE THEREOF” (RIGERNA THERAPEUTICS (BEIJING) CO., LTD., priority 2023, published 2026).
Strand notation (5' to 3'): a small letter for the sugar, then the base; units joined by * are phosphorothioate-linked, units joined directly phosphodiester-linked; [ ] holds rarer units or linkages, { } end groups; capitals alone tell only the bases. [Uhd] = commercial lipid-conjugated uridine analogue Uhd (C16), from Hongene, reference; {VP} = (thio)vinylphosphonate on the antisense 5' nucleotide, as listed; e = 2'-O-(2-methoxyethyl) (MOE); m = 2'-O-methyl; f = 2'-fluoro

How the values were obtained:
target gene SOD1 [1] = test: Test Example 4: lipid conjugated siRNA sequences with different carbon chain lengths, SOD1 in mouse brain, lateral ventricle administration; assay type: in vivo, C57BL/6j mice; parameters: Right hemisphere Mean value of inhibition rate / Left hemisphere Mean value of inhibition rate: unit not given here; details: D5; for Left hemisphere Mean value of inhibition rate: left hemisphere (non-administration side); for Left hemisphere Mean value of inhibition rate / Right hemisphere Mean value of inhibition rate: lateral ventricle; for Right hemisphere Mean value of inhibition rate: right hemisphere (administration side)
Description: 6-8 Week-old C57BL/6j mice were randomly grouped by body weight. Mice in each group were administered with siRNA by lateral ventricle administration, with an administration dose per mouse depending on a specific test. Taking Bregma in mouse brain as point 0 (origin), coordinates of right ventricle were found using the cerebral stereotaxic apparatus and position was marked on surface of skull (position of lateral ventricle was AP (anteroposterior, bregma anterior and posterior): −0.58 mm, ML (mediolateral, left and right of middle raphe): −1.2 mm, DV (dorsoventral, up and down cerebral dura mater plane): −2.2 mm). A dental electric drill was used to drill in the skull above a position of interest, and then medicament was injected into the lateral ventricle by a micro-dosing pump, wherein a total injection volume was 5 μL, and injection duration was 10 min. Needle was retained for 5 min after completion of injection, and then slowly withdrawn. Afterwards, needle hole was sealed with biomedical glue, and then head skin was adhered. After animals woke up, the animals were returned back to animal house and further fed. PBS control group was administered with the same volume of siRNA-free PBS solution. The day of administration was recorded as 0 day (D0), and the mice were sacrificed at observation point after the administration. Different parts of brain region were respectively taken and stored in the RNAlater.
(§1) RNA extraction: the above tissue samples were taken out from the RNAlater, and smashed for 60 s in Tissuelyser type II full-automatic tissue homogenizer, and total RNAs of various tissue samples were extracted using the full-automatic nucleic acid extraction instrument and the nucleic acid extraction kit from Zhejiang Hanwei Science and Technology Co. Ltd. according to methods described in instructions.
(§2) Reverse transcription reaction: 1 μg of the extracted total RNAs of the tissue samples were taken, and configured into 20 μL of reverse transcription system according to a method described in kit instructions by using a reverse transcription kit (Reverse Transcription System, A3500) from Promega Corporation and selecting Oligo (dT)15 reverse transcription primers, and the reverse transcription reaction was completed. After the reaction was ended, 80 μL of RNase-Free water was added into the reverse transcription system to provide cDNA solution for Real-time PCR detection.
(§3) Real-time PCR detection: 20 μL of Real-time PCR reaction system per PCR detection well was configured according to a method described in kit instructions using SYBR™ Select Master Mix (Catalog number: 4472908) reagent from ABI company. Each detection system contained 5 μL of cDNA template obtained from the above reverse transcription reaction, 10 μL of SYBR™ Select Master Mix, 0.5 μL of 10 μM upstream primers, 0.5 μL of 10 μM downstream primers, and 4 μL of RNase-Free H2O. The configured reaction system was subjected to Real-time PCR amplification on ABI StepOnePlus PCR instrument by a three-step method, wherein an amplification procedure was pre-denaturation at 95° C. for 10 min, then denaturation at 95° C. for 30 s, annealing at 60° C. for 30 s, and extension at 72° C. for 30 s; and processes of denaturation, annealing, and extension were repeated for 40 cycles. Gene expression differences were calculated by the ΔΔCt method after completion of the procedure.
In the real-time fluorescence quantitative PCR method, relative quantitative calculation of remaining expression level and inhibition rate of gene mRNA of interest in various test groups was performed by the ΔΔCt method, and the calculation method is as follows: […]

target gene SOD1 [2] = test: Test Example 7: inhibitory activity of lipid conjugated siRNA sequences on SOD1 in mouse adipose and muscle tissues (tail vein injection); assay type: in vivo, C57BL/6j mice; details: for D 14 % Mean value of inhibition rate / D 28 % Mean value of inhibition rate / D 49 % Mean value of inhibition rate / Kidney D 14 % Mean value of inhibition rate / Kidney D 28 % Mean value of inhibition rate / Kidney D 49 % Mean value of inhibition rate / Liver D 14 % Mean value of inhibition rate / Liver D 28 % Mean value of inhibition rate / Liver D 49 % Mean value of inhibition rate: tail vein injection 5 mg/kg; for D 28 % Mean value of inhibition rate / Kidney D 28 % Mean value of inhibition rate / Liver D 28 % Mean value of inhibition rate: D28; for D 49 % Mean value of inhibition rate / Kidney D 49 % Mean value of inhibition rate / Liver D 49 % Mean value of inhibition rate: D49; for Kidney D 14 % Mean value of inhibition rate / Kidney D 28 % Mean value of inhibition rate / Kidney D 49 % Mean value of inhibition rate: mouse kidney; for Liver D 14 % Mean value of inhibition rate / Liver D 28 % Mean value of inhibition rate / Liver D 49 % Mean value of inhibition rate: mouse liver
Description: as §1, §2, §3
In the real-time fluorescence quantitative PCR method, relative quantitative calculation of remaining expression level and inhibition rate of gene mRNA of interest in various test groups was performed by the ΔΔCt method, and the calculation method is as follows:
The present test example evaluated, by an evaluation method for inhibitory activity on a target gene in mice, the inhibitory activity of siRNA sequence RZ899090 with the sense strand with the NM073 conjugation at Position 4, siRNA sequence RZ899091 with the sense strand with the NM074 conjugation at Position 4, siRNA sequence RZ899078 with the sense strand with the NM202 conjugation at Position 6 and siRNA reference sequence RZ899093 with the sense strand with the Uhd conjugation at Position 4, and siRNA reference sequence RZ899076 with the sense strand with the NM200 conjugation at Position 4 on the target gene SOD1 of interest in mice. The above conjugation vectors were different in that NM073 was C18 aliphatic chain, NM074 was C20 aliphatic chain, and NM0202 and NM0200 were C22 aliphatic chains.
6-8 Week-old C57BL/6j mice were randomly grouped by body weight, 15 per group, 6 groups in total. Mice in each group were dosed with the above siRNA conjugates by tail vein injection, with an administration dose of 5 mg/kg per mouse, and an administration volume of 150 μL. PBS control group was administered with the same volume of siRNA conjugate-free PBS solution. The day of administration was recorded as D0, and 5 mice in each group were sacrificed on D14, D28 and D49 after administration. Tissues such as paragonadal fat, left hind leg quadriceps muscle, heart, liver, and kidney were respectively taken and stored in the RNAlater. RNA extraction, reverse transcription, and real-time fluorescence quantitative detection were performed on various tissues according to the above method, and gene expression differences were calculated by the above ΔΔCt method.

[3] = mouse adipose tissues (paragonadal fat), D14
[4] = mouse adipose tissues (paragonadal fat)
[5] = mouse skeletal muscle tissues (left hind leg quadriceps muscle), D14
[6] = mouse skeletal muscle tissues (left hind leg quadriceps muscle)

Substance | Left hemisphere Mean value of inhibition rate (target gene SOD1 [1]; 150 μg per mouse) | Right hemisphere Mean value of inhibition rate (target gene SOD1 [1]; 150 μg per mouse) | D 14 % Mean value of inhibition rate (target gene SOD1 [2]; [3]) [%] | D 28 % Mean value of inhibition rate (target gene SOD1 [2]; [4]) [%] | D 49 % Mean value of inhibition rate (target gene SOD1 [2]; [4]) [%] | D 14 % Mean value of inhibition rate (target gene SOD1 [2]; mouse heart tissues, D14) [%] | D 28 % Mean value of inhibition rate (target gene SOD1 [2]; mouse heart tissues) [%] | D 49 % Mean value of inhibition rate (target gene SOD1 [2]; mouse heart tissues) [%] | Kidney D 14 % Mean value of inhibition rate (target gene SOD1 [2]; D14) [%] | Kidney D 28 % Mean value of inhibition rate (target gene SOD1 [2]) [%] | Kidney D 49 % Mean value of inhibition rate (target gene SOD1 [2]) [%] | Liver D 14 % Mean value of inhibition rate (target gene SOD1 [2]; D14) [%] | Liver D 28 % Mean value of inhibition rate (target gene SOD1 [2]) [%] | Liver D 49 % Mean value of inhibition rate (target gene SOD1 [2]) [%] | D 14 % Mean value of inhibition rate (target gene SOD1 [2]; [5]) [%] | D 28 % Mean value of inhibition rate (target gene SOD1 [2]; [6]) [%] | D 49 % Mean value of inhibition rate (target gene SOD1 [2]; [6]) [%] | also measured
RZ899090: siRNA sequence with the sense strand with the NM073 (C18) conjugation at Position 4; SEQ ID NO: 15 / 23 (sense UUUNAAUCCUCACUCUAAA; antisense UUUAGAGUGAGGAUUAAAAUG; NM073 (C18) conjugate at sense position 4; modified_base 1..2 OTHER; 2'-methoxy and 5'-thiophosphate modified nucleotides; modified_base 3 OTHER; 2'-methoxy modified nucleotide; modified_base 4 OTHER; n is the nucleotide analog NM073 as described in the disclosure.; modified_base 5..6 OTHER; 2'-methoxy modified nucleotides; modified_base 7..10 OTHER; 2'-fluoro modified nucleotides; modified_base 11..19 OTHER; modified_base 1 OTHER; 2'-methoxy and 5'-thiovinylphosphonate modified nucleotide; modified_base 2 OTHER; 2'-fluoro and 5'-thiophosphate modified nucleotide; modified_base 3..5 OTHER; …) | 67.87 | 78.49 | 92.09 | 85.11 | 61.34 | 79.58 | 82.12 | 65.43 | 31.38 | 15.90 | 7.12 | 36.99 | 7.32 | −12.46 | 57.16 | 51.23 | 42.93 | inhibitory activity compared with the vector-free siRNA sequence RX599002 (target gene SOD1 [1]; left and right hemisphere, lateral ventricle 150 μg per mouse): superior inhibitory activity; activity compared with Uhd conjugated reference sequence RZ899093 and NM200 (C22) conjugated reference sequence RZ899076 (target gene SOD1 [1]; right hemisphere (administration side) and left hemisphere (non-administration side), 150 μg per mouse): substantially comparable or superior activity; inhibitory action on liver and kidney tissues (target gene SOD1 [2]; liver and kidney (non-target tissues), tail vein 5 mg/kg, D28 and D49): no inhibitory action; inhibitory activity compared with the NM200 conjugated reference sequence RZ899076 (target gene SOD1 [2]; mouse adipose tissues, tail vein 5 mg/kg, D14): on par; inhibitory activity compared with Uhd conjugated reference sequence RZ899093 and NM200 conjugated reference sequence RZ899076 (target gene SOD1 [2]; mouse heart tissues, tail vein 5 mg/kg, D14, D28 and D49): superior inhibitory activity; inhibitory activity in mouse skeletal muscle tissues (target gene SOD1 [2]; skeletal muscle, tail vein 5 mg/kg): certain inhibitory activity
RZ899093: siRNA reference sequence with the sense strand with the Uhd (C16) conjugation at Position 4; SEQ ID NO: 13 / 23 (sense mU*mU*mU[Uhd]mAmAfUfCfCfUmCmAmCmUmCmUmAmAmA; antisense {VP}-mU*fU*mUmAmGfAmGmUmGmAmGfGmAfUeUfAmAmAmA*mU*mG) [reference compound] | 70.23 | 80.47 | 88.95 | 81.22 | 81.75 | 57.83 | 60.42 | 44.18 | 42.87 | 19.28 | 18.90 | 48.04 | 13.41 | 13.02 | 68.42 | 64.12 | 44.88 | –
